Test results taken from paper PMC8716319 (Toxicology, 2020).

Tests used:
[1] = Stability of alpha-dicarbonyl metabolites under reaction conditions; format: in vitro ADME; settings: low (50 μM) and high (500 μM) concentrations; student's t-test p < 0.05
[2] = biological target: T1, microsomal epoxide hydrolase (Homo sapiens, UniProt P07099); format: in vitro ADME; settings: 1 μM elaidamide; 40 and 400 μM substrate; HLM
T1 sequence (P07099 1-455): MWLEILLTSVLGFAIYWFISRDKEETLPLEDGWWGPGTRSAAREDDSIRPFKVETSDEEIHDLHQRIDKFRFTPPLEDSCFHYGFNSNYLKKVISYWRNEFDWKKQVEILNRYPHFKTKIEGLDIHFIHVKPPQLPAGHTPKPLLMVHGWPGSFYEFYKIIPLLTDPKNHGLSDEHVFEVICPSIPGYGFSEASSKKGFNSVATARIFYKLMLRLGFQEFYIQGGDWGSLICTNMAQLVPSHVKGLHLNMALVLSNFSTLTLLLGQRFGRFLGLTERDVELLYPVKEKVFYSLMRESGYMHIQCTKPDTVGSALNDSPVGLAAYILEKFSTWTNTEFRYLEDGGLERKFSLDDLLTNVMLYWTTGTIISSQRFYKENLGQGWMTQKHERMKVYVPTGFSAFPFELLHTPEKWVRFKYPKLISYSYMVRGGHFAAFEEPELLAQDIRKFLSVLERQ

Row | Structure (SMILES) | depletion under reaction conditions [1] | inhibition of alpha-dicarbonyl formation by elaidamide [2]
1 | O=CC=O [glyoxal] | no significant depletion | 
2 | CC(=O)C=O [methylglyoxal] | only significant depletion after 60 min | 
3 | CN1C(C(=O)Nc2nccs2)=C(O)c2ccccc2S1(=O)=O [sudoxicam, N-(2-thiazolyl)-4-hydroxy-2-methyl-2H-1,2-benzothiazine-3-carboxamide 1,1-dioxide] |  | 90%
